Reference: ChEMBL document CHEMBL1201862, “PubChem BioAssay data set” (2004)
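Interpolation was linear, between the two tested concentrations surrounding the appropriate level; five concentrations were tested over 48 hours in 96-well plates. GI50 marks 50% less growth.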 Activity calls are given as the source filed them. Rule as the data show it: active = GI50 up to about 1.1 µM and inactive = higher.

Experiments:
Assay in all cases: NCI anticancer screen, dose series, 48 h
SK-MEL-5 = test system: SK-MEL-5
KM-20L2 = test system: KM-20L2
HT-29 = test system: HT-29
HOP-92 = test system: HOP-92
UACC-62 = test system: UACC-62
SR = test system: SR
DLD-1 = test system: DLD-1
UO-31 = test system: UO-31
OVCAR-5 = test system: OVCAR-5
KM12 = test system: KM12
786-0 = test system: 786-0
TK-10 = test system: TK-10
NCI-H460 = test system: NCI-H460
A549 = test system: A549
HOP-18 = test system: HOP-18
XF498 = test system: XF498
OVCAR-3 = test system: OVCAR-3
MOLT-4 = test system: MOLT-4
CAKI-1 = test system: CAKI-1
UACC-257 = test system: UACC-257
LXFL 529 = test system: LXFL 529
SK-MEL-28 = test system: SK-MEL-28
NCI-H522 = test system: NCI-H522
SN12C = test system: SN12C
SK-OV-3 = test system: SK-OV-3
SK-MEL-2 = test system: SK-MEL-2
K562 = test system: K562
SW-620 = test system: SW-620
ACHN = test system: ACHN
NCI-H226 = test system: NCI-H226
HCT-116 = test system: HCT-116
COLO 205 = test system: COLO 205
NCI-H23 = test system: NCI-H23
SNB-19 = test system: SNB-19
OVCAR-4 = test system: OVCAR-4
U-251 = test system: U-251
SF-268 = test system: SF-268
DMS-114 = test system: DMS-114
RXF 393 = test system: RXF 393
SF-295 = test system: SF-295
EKVX = test system: EKVX
CCRF-CEM = test system: CCRF-CEM
SF-539 = test system: SF-539
M14 = test system: M14
SNB-75 = test system: SNB-75
RPMI-8226 = test system: RPMI-8226
HOP-62 = test system: HOP-62
HCC 2998 = test system: HCC 2998
OVCAR-8 = test system: OVCAR-8
SNB-78 = test system: SNB-78
M19-MEL = test system: M19-MEL
DMS-273 = test system: DMS-273
Malme-3M = test system: Malme-3M
RXF 631 = test system: RXF 631
LOX IMVI = test system: LOX IMVI
HL-60 = test system: HL-60

Measured: GI50

CN(C)c1ccc(C=C2C(=O)OC(C)(C)OC2=O)cc1Br
inactive: SK-MEL-5 > 100 µM | KM-20L2 > 100 µM | HT-29 > 100 µM | HOP-92 29.4 µM | UACC-62 > 100 µM | SR 59.6 µM | DLD-1 > 100 µM | UO-31 > 100 µM | OVCAR-5 > 100 µM | KM12 > 100 µM | 786-0 > 100 µM | TK-10 > 100 µM | NCI-H460 > 100 µM | A549 > 100 µM | HOP-18 > 100 µM | XF498 > 100 µM | OVCAR-3 > 100 µM | MOLT-4 > 100 µM | CAKI-1 > 100 µM | UACC-257 > 100 µM | LXFL 529 > 100 µM | SK-MEL-28 > 100 µM | NCI-H522 > 100 µM | SN12C > 100 µM | SK-OV-3 > 100 µM | SK-MEL-2 > 100 µM | K562 82.6 µM | SW-620 > 100 µM | ACHN > 100 µM | NCI-H226 > 100 µM | HCT-116 48.9 µM | COLO 205 > 100 µM | NCI-H23 > 100 µM | SNB-19 > 100 µM | OVCAR-4 > 100 µM | U-251 > 100 µM | SF-268 > 100 µM | DMS-114 > 100 µM | RXF 393 > 100 µM | SF-295 > 100 µM | EKVX > 100 µM | CCRF-CEM > 100 µM | SF-539 > 100 µM | M14 > 100 µM | SNB-75 29.5 µM | RPMI-8226 > 100 µM | HOP-62 > 100 µM | HCC 2998 > 100 µM | OVCAR-8 > 100 µM | SNB-78 > 10 µM | M19-MEL > 100 µM | DMS-273 > 100 µM | Malme-3M > 100 µM | RXF 631 > 100 µM | LOX IMVI > 100 µM | HL-60 41.1 µM
